The compounds below were run against Human Factor D (Homo sapiens (Human), UniProt P00746) (assay: Human Factor D Assay). Details: Factor D inhibition, assay of Example 10; read-out: IC5 (Stars).
Chain of Human Factor D (P00746 26-253): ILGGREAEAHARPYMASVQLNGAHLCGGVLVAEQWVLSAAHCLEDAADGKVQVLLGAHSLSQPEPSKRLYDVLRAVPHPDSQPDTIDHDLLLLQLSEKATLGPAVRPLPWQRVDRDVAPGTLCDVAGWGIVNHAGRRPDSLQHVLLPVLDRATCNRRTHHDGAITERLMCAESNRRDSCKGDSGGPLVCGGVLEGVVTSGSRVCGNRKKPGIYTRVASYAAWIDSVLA
Type: biochemical
How it was run: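 Thioester substrate Z-L-Lys-SBz (100 μM) with Ellman's reagent DTNB (100 μM) reports activity of 80 nM human serum-derived enzyme, kinetically at 405 nm over 30 min. Compound preincubated 5 min, room temperature, pH 7.5 Tris/1 M NaCl; IC50 by nonlinear fit of rates.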
`CC(=O)c1nn(CC(=O)N2[C@H](C(=O)Nc3nc(Br)ccc3CN3CC4CCC3C4)C[C@@]3(C)C[C@@H]23)c2ccc(-c3cnc(C)nc3)cc12` (stereo partly drawn) [Compound 308, (1R,3S,5R)-N-(3-(2-azabicyclo[2.2.1]heptan-2-ylmethyl)-6-bromopyridin-2-yl)-2-(2-(3-acetyl-5-(2-methylpyrimidin-5-yl)-1H-indazol-1-yl)acetyl)-5-methyl-2-azabicyclo[3.1.0]hexane-3-carboxamide] gave an IC50 of less than 1000 nM.
`CC(=O)c1nn(CC(=O)N2[C@H](C(=O)Nc3nc(Br)ccc3C)C[C@@]3(c4cn(C(C)C)nn4)C[C@@H]23)c2ccc(-c3cnc(C)nc3)cc12` [Compound 309, (1R,3S,5S)-2-(2-(3-acetyl-5-(2-methylpyrimidin-5-yl)-1H-indazol-1-yl)acetyl)-N-(6-bromo-3-methylpyridin-2-yl)-5-(1-isopropyl-1H-1,2,3-triazol-4-yl)-2-azabicyclo[3.1.0]hexane-3-carboxamide] was tested, and the IC50 was less than 1000 nM.
Compound `CC(=O)c1nn(CC(=O)N2[C@H](C(=O)Nc3nc(Br)ccc3C)C[C@@]3(Cn4cccn4)C[C@@H]23)c2ccc(-c3cnc(C)nc3)cc12` [Compound 310, (1R,3S,5R)-5-((1H-Pyrazol-1-yl)methyl)-2-(2-(3-acetyl-5-(2-methylpyrimidin-5-yl)-1H-indazol-1-yl)acetyl)-N-(6-bromo-3-methylpyridin-2-yl)-2-azabicyclo[3.1.0]hexane-3-carboxamide] has an IC50 of less than 1000 nM.
Work on `CC(=O)c1nn(CC(=O)N2[C@H](C(=O)Nc3nc(Br)ccc3C)C[C@@]3(Cn4ccc(C(C)(C)C)n4)C[C@@H]23)c2ccc(-c3cnc(C)nc3)cc12` [Compound 311, (1R,3S,5R)-2-(2-(3-acetyl-5-(2-methylpyrimidin-5-yl)-1H-indazol-1-yl)acetyl)-N-(6-bromo-3-methylpyridin-2-yl)-5-((3-(tert-butyl)-1H-pyrazol-1-yl)methyl)-2-azabicyclo[3.1.0]hexane-3-carboxamide] yielded an IC50 of less than 1000 nM.
In the case of `CC(=O)c1nn(CC(=O)N2[C@H](C(=O)Nc3nc(Br)ccc3C)C[C@@]3(Cn4cncn4)C[C@@H]23)c2ccc(-c3cnc(C)nc3)cc12` [Compound 312, (1R,3S,5R)-5-((1H-1,2,4-triazol-1-yl)methyl)-2-(2-(3-acetyl-5-(2-methylpyrimidin-5-yl)-1H-indazol-1-yl)acetyl)-N-(6-bromo-3-methylpyridin-2-yl)-2-azabicyclo[3.1.0]hexane-3-carboxamide], the IC50 is reported as less than 1000 nM.
Compound `CC(=O)c1nn(CC(=O)N2[C@H](C(=O)Nc3nc(Br)ccc3C)C[C@@]3(Cn4cncn4)C[C@@H]23)c2cnc(-c3cnc(C)nc3)cc12` [Compound 313, (1R,3S,5R)-5-((1H-1,2,4-triazol-1-yl)methyl)-2-(2-(3-acetyl-5-(2-methylpyrimidin-5-yl)-1H-pyrazolo[3,4-c]pyridin-1-yl)acetyl)-N-(6-bromo-3-methylpyridin-2-yl)-2-azabicyclo[3.1.0]hexane-3-carboxamide] has an IC50 of less than 1000 nM.
Work on `CC(=O)c1nn(CC(=O)N2[C@H](C(=O)Nc3nc(Br)ccc3C)C[C@@]3(Cn4cnc(C)c4)C[C@@H]23)c2ccc(-c3cnc(C)nc3)cc12` [Compound 314, (1R,3S,5R)-2-(2-(3-Acetyl-5-(2-methylpyrimidin-5-yl)-1H-indazol-1-yl)acetyl)-N-(6-bromo-3-methylpyridin-2-yl)-5-((4-methyl-1H-imidazol-1-yl)methyl)-2-azabicyclo[3.1.0]hexane-3-carboxamide] yielded an IC50 of less than 1000 nM.
`CC(=O)c1nn(CC(=O)N2[C@@H](C(=O)Nc3nc(Br)ccc3C)C[C@@]3(Cn4cnc(C)c4)C[C@@H]23)c2ccc(-c3cnc(C)nc3)cc12` [Compound 315, (1R,3R,5R)-2-(2-(3-Acetyl-5-(2-methylpyrimidin-5-yl)-1H-indazol-1-yl)acetyl)-N-(6-bromo-3-methylpyridin-2-yl)-5-((4-methyl-1H-imidazol-1-yl)methyl)-2-azabicyclo[3.1.0]hexane-3-carboxamide] showed an IC50 of 1000 to 10000 nM.
In the case of `CCc1cc(-c2cnc(C)nc2)cc2c(C(C)=O)nn(CC(=O)N3[C@H](C(=O)Nc4nc(Br)ccc4C)C[C@@]4(CN(C)C)C[C@@H]34)c12` [Compound 316, (1R,3S,5R)-2-(2-(3-acetyl-7-ethyl-5-(2-methylpyrimidin-5-yl)-1H-indazol-1-yl)acetyl)-N-(6-bromo-3-methylpyridin-2-yl)-5-((dimethylamino)methyl)-2-azabicyclo[3.1.0]hexane-3-carboxamide], the IC50 is reported as less than 1000 nM.
In the case of `CC(=O)c1nn(CC(=O)N2[C@H](C(=O)Nc3nc(Br)ccc3CN3CCC(C)(F)CC3)C[C@@]3(C)C[C@@H]23)c2ccc(-c3cnc(C)nc3)cc12` [Compound 322, (1R,3S,5R)-2-(2-(3-acetyl-5-(2-methylpyrimidin-5-yl)-1H-indazol-1-yl)acetyl)-N-(6-bromo-3-((4-fluoro-4-methylpiperidin-1-yl)methyl)pyridin-2-yl)-5-methyl-2-azabicyclo[3.1.0]hexane-3-carboxamide], the IC50 is reported as less than 1000 nM.
For `CC(=O)c1nn(CC(=O)N2[C@H](C(=O)Nc3nc(Br)ccc3C)C[C@@]3(CN(C)C)C[C@@H]23)c2c(C(F)CF)cc(-c3cnc(C)nc3)cc12` (stereo partly drawn) [Compound 325, (1R,3S,5R)-2-(2-(3-acetyl-7-(1,2-difluoroethyl)-5-(2-methylpyrimidin-5-yl)-1H-indazol-1-yl)acetyl)-N-(6-bromo-3-methylpyridin-2-yl)-5-((dimethylamino)methyl)-2-azabicyclo[3.1.0]hexane-3-carboxamide], the IC50 was less than 1000 nM.
In the case of `CC(=O)c1nn(CC(=O)N2[C@H](C(=O)Nc3nc(Br)ccc3C)C[C@@]3(CCC(F)F)C[C@@H]23)c2cnc(-c3cnc(C)nc3)cc12` [Compound 327], the IC50 is reported as less than 1000 nM.
Compound `CC(=O)c1nn(CC(=O)N2[C@H](C(=O)Nc3nc(Br)ccc3C)C[C@@]3(C)C[C@@H]23)c2ccc(-c3cnc(C)nc3C)cc12` [Compound 331, (1R,3S,5R)-2-(2-(3-acetyl-5-(2,4-dimethylpyrimidin-5-yl)-1H-indazol-1-yl)acetyl)-N-(6-bromo-3-methylpyridin-2-yl)-5-methyl-2-azabicyclo[3.1.0]hexane-3-carboxamide] has an IC50 of less than 1000 nM.
For `CC(=O)c1nn(CC(=O)N2[C@H](C(=O)Nc3nc(Br)ccc3C)C[C@@]3(c4cc(C(C)C)no4)C[C@@H]23)c2ccc(-c3cnc(C)nc3)cc12` [Compound 333, (1R,3S,5S)-2-(2-(3-acetyl-5-(2-methylpyrimidin-5-yl)-1H-indazol-1-yl)acetyl)-N-(6-bromo-3-methylpyridin-2-yl)-5-(3-isopropylisoxazol-5-yl)-2-azabicyclo[3.1.0]hexane-3-carboxamide], the IC50 was less than 1000 nM.
`CC(=O)c1nn(CC(=O)N2[C@H](C(=O)Nc3nc(Br)ccc3C)C[C@@]3(Cc4nc(C(C)(C)C)cs4)C[C@@H]23)c2ccc(-c3cnc(C)nc3)cc12` [Compound 338, (1R,3S,5R)-2-{2-[3-Acetyl-5-(2-methylpyrimidin-5-yl)indazol-1-yl]acetyl}-N-(6-bromo-3-methylpyridin-2-yl)-5-[(4-tert-butyl-1,3-thiazol-2-yl)methyl]-2-azabicyclo[3.1.0]hexane-3-carboxamide] gave an IC50 of less than 1000 nM.
For `CCc1csc(C[C@@]23C[C@@H](C(=O)Nc4nc(Br)ccc4C)N(C(=O)Cn4nc(C(C)=O)c5cc(-c6cnc(C)nc6)ccc54)[C@@H]2C3)n1` [Compound 339, (1R,3S,5R)-2-(2-(3-acetyl-5-(2-methylpyrimidin-5-yl)-1H-indazol-1-yl)acetyl)-N-(6-bromo-3-methylpyridin-2-yl)-5-((4-ethylthiazol-2-yl)methyl)-2-azabicyclo[3.1.0]hexane-3-carboxamide], the IC50 was less than 1000 nM.
With `CC(=O)c1nn(CC(=O)N2[C@H](C(=O)Nc3nc(Br)ccc3C)C[C@@]3(CNCCCF)C[C@@H]23)c2c(C)cc(-c3cnc(C)nc3)cc12` [Compound 342, (1R,3S,5R)-2-(2-(3-acetyl-7-methyl-5-(2-methylpyrimidin-5-yl)-1H-indazol-1-yl)acetyl)-N-(6-bromo-3-methylpyridin-2-yl)-5-(((3-fluoropropyl)amino)methyl)-2-azabicyclo[3.1.0]hexane-3-carboxamide] the IC50 was less than 1000 nM.

Same assay, conditions: Table 8; Factor D 80 nM, substrate Z-L-Lys-SBz; read-out: IC50
In the case of `CC(=O)c1nn(CC(=O)N2[C@H](C(=O)Nc3nc(Br)ccc3C)C[C@@]3(CN(C)C)C[C@@H]23)c2c(C3CC3)cc(-c3cnc(C)nc3)cc12` [Compound 317, (1R,3S,5R)-2-(2-(3-acetyl-7-cyclopropyl-5-(2-methylpyrimidin-5-yl)-1H-indazol-1-yl)acetyl)-N-(6-bromo-3-methylpyridin-2-yl)-5-((dimethylamino)methyl)-2-azabicyclo[3.1.0]hexane-3-carboxamide], the IC50 is reported as less than 1000 nM.
`CC(=O)c1nn(CC(=O)N2[C@H](C(=O)Nc3nc(Br)ccc3C)C[C@@]3(CN(C)C)C[C@@H]23)c2c(C(F)(F)F)cc(-c3cnc(C)nc3)cc12` [Compound 318, (1R,3S,5R)-2-(2-(3-acetyl-5-(2-methylpyrimidin-5-yl)-7-(trifluoromethyl)-1H-indazol-1-yl)acetyl)-N-(6-bromo-3-methylpyridin-2-yl)-5-((dimethylamino)methyl)-2-azabicyclo[3.1.0]hexane-3-carboxamide] showed an IC50 of less than 1000 nM.
With `COC(=O)CCCCCCCCCCCCCCCCC(=O)N[C@@H](CCC(=O)NCCOCCOCC(=O)NCCOCCOCC(=O)NCc1ncc(-c2ccc3c(c2)c(C(C)=O)nn3CC(=O)N2[C@H](C(=O)Nc3nc(Br)ccc3C)C[C@@]3(C)C[C@@H]23)cn1)C(=O)OC` [Compound 329] the IC50 was less than 1000 nM.
`C=CCCCCCCc1cc(-c2cnc(C)nc2)cc2c(C(C)=O)nn(CC(=O)N3[C@H](C(=O)Nc4nc(Br)ccc4CC=C)C[C@@]4(C)C[C@@H]34)c12` [Compound 343, (1R,3S,5R)-2-(2-(3-acetyl-5-(2-methylpyrimidin-5-yl)-7-(oct-7-en-l-yl)-1H-indazol-1-yl)acetyl)-N-(3-allyl-6-bromopyridin-2-yl)-5-methyl-2-azabicyclo[3.1.0]hexane-3-carboxamide] gave an IC50 of less than 1000 nM.
